# Assay results from patent US20130022612A1, “METHODS AND COMPOSITIONS FOR MALARIA PROPHYLAXIS” (priority 2004, published 2013).
# Experiments:
# [1] = test system: CSP processing in P. berghei sporozoites; experiment: Pulse-chase metabolic labeling of CSP processing, P. berghei sporozoites; assay type: cell-based, Plasmodium berghei
# Procedure: P. berghei sporozoites were incubated in Dulbecco's Modified Eagle Medium (DMEM; Invitrogen, Carlsbad, Calif.) without cysteine (Cys) and methionine (Met), containing 1% BSA and […] L-[35 S]-Cys/Met (Pro-Mix, Amersham Pharmacia) in a total volume of 200 μl for one hour at 28° C. They were then washed and resuspended in DMEM/BSA containing unlabeled Cys/Met at 28° C. for the indicated time in the presence or absence of the indicated protease inhibitor. Sporozoites were then lysed and CSP was immunoprecipitated and analyzed by autoradiography as outlined below.
# When sporozoites were incubated with specific inhibitors, their concentrations were as follows: 10 […] E-64; 1 mM phenylmethylsulfonyl fluoride (PMSF); 0.3 mM aprotinin; 100 mM 3,4 DCl; 75 mM leupeptin; 100 mM TLCK; 1 mM pepstatin; 1 mM 1,10 phenanthroline; 5 mM EDTA; 0.5% sodium azide. To check for toxicity by propidium iodide (PI) staining, P. berghei sporozoites were incubated in the presence or absence of the various protease inhibitors for two hours at 28° C., PI was then added to a final concentration of […] for five minutes at 28° C. The sporozoites were washed and viewed under a fluorescent microscope.
# Metabolically-labeled sporozoites were lysed in lysis buffer (1% Triton X-100, 50 mM Tris-HCl pH 8.0) with 150 mM NaCl containing a protease inhibitor cocktail (Complete Mini-Tablets, Roche) for one hour at 4° C. The lysates were incubated with mAb 3D11 conjugated to agarose overnight at 4° C. with agitation, and the beads were then washed sequentially with lysis buffer containing 150 mM NaCl, high salt buffer (500 mM NaCl in lysis buffer), lysis buffer without added NaCl, and pre-elution buffer (0.5% Triton X-100, 10 mM Tris-HCl pH 6.8). CSP was eluted with 1% SDS in 0.1 M glycine pH 1.8, neutralized with 1.5 M Tris-HCl pH 8.8, and run on a 7.5% SDS-polyacrylamide gel under nonreducing conditions.
# P. berghei sporozoites were metabolically labeled as previously described (Bruna-Romero, O., et al.). Briefly, sporozoites were labeled in Dulbecco's Modified Eagle Medium containing 1% BSA (DMEM/BSA) without Cys/Met and with 400 μCi/ml L-[^35S]Cys/Met for one hour at 28° C. and chased in DMEM/BSA with Cys/Met at 28° C. in the presence of 10 μM E-64 or the indicated concentrations of allicin. Labeled sporozoites were lysed in 1% Triton X-100/150 mM NaCl/50 mM Tris-HCl pH 8.0 with protease inhibitors, and lysates were incubated with 3D11-sepharose overnight at 4° C. CSP was eluted with 1% SDS in 0.1 M glycine pH 1.8, neutralized with Tris-HCl pH 8.8, and run on a 7.5% SDS-polyacrylamide gel under nonreducing conditions. The gel was fixed, enhanced with Amplify (Amersham Pharmacia), dried and exposed to film.
# P. berghei sporozoites were metabolically labeled in DMEM without Cys/Met, 1% BSA and 400 μCi/ml L-[^355]-Cys/Met for 1 hour at 28° C. and then kept on ice or chased at 28° C. for the indicated times. Details of this procedure are outlined in (Coppi et al., 2005). To investigate the kinetics of processing in the presence of hepatocytes, sporozoites were labeled as above, chased at 28° C. for 1 hour and then centrifuged (300×g) onto glass coverslips with Hepa 1-6 cells and incubated at 37° C. for 5, 15 or 30 minutes. To investigate the effect of antibodies on CSP cleavage, sporozoites were labeled as above and then chased for 2 hours in the presence of the indicated antibody. Monoclonal antibodies were used as purified antibodies at the indicated concentrations and the IgG fraction of the NH2-terminal antiserum was used after isolation by Protein A (Vivapure maxiprepA; Sartorius, Edgewood, N.Y.). In all cases, labeled sporozoites (with or without Hepa 1-6 cells) were lysed and labeled CSP was immunoprecipitated with mAb-3D11 conjugated to sepharose or in the case of P. falciparum CSP, with mAb-2A10 conjugated to sepharose, as previously described (Coppi et al., 2005). CSP was eluted from the beads, run on an SDS-PAGE gel which was enhanced, dried and exposed to film. […]
# [2] = test system: CSP cleavage in P. berghei sporozoites; experiment: Cell contact assay (CSP cleavage on contact with hepatocytes); assay type: cell-based, Plasmodium berghei; details: experiment 1, no cells, visualized with α-N
# Procedure: Hepa 1-6 cells were seeded on glass coverslips at a density of 2×10^5 cells per coverslip and grown until confluent. P. berghei sporozoites were incubated in DMEM±10 mM E-64 at 4° C. for two hours. Thirty minutes before sporozoites were added to coverslips, Cytochalasin D (CD) was added to all samples (final concentration, […]). Sporozoites were centrifuged onto coverslips (1250×g) for five minutes at 4° C. Coverslips were then brought to 37° C. for two minutes, fixed with 4% paraformaldehyde and stained with either mAb 3D11 followed by anti-mouse Ig FITC or the N-terminal antiserum (1:100) followed by anti-rabbit Ig FITC. […] As a control, sporozoites were spun onto coverslips without cells using the protocol outlined above.
# P. yoelii sporozoites = details: preincubated with 10 mM E-64
# Procedure: Lab-Tek glass slides (model 177402, Nalgene Nunc Corp., Naperville, Il.) were coated with […] of mAb 3D11 (P. berghei) or mAbs 2F6 and NYS1 (P. yoelii) and sporozoites pre-incubated with DMEM/BSA alone or supplemented with 10 mM E-64 or CD for two hours at 28° C. were added in the continued presence of the inhibitor for one hour at 37° C. in a humidified chamber with 5% CO2. The slides were then fixed with 4% paraformaldehyde, incubated with 1:100 dilution of either biotinylated mAb 3D11 (P. berghei) or biotinylated mAb NYS1 (P. yoelii) followed by streptavidin-FITC.
Compound,"CSP cleavage ([1]; 50 μM allicin for 10 minutes, then diluted to 4.2 μM for the remainder of the chase)","CSP cleavage ([1]; 10, 25, and 50 μM allicin, two hour chase)",degree of inhibition of CSP cleavage relative to E-64 ([1]; allicin versus 10 μM E-64),"effect on CSP processing ([1]; two hour chase at 28° C., 10 mM E-64, 1 mM PMSF, 0.3 mM aprotinin, 100 mM 3,4 DCl, 75 mM leupeptin, 100 mM TLCK, 1 mM pepstatin, 1 mM 1,10 phenanthroline, 5 mM EDTA)",percentage staining with the N-terminal antiserum [2],percentage of sporozoites that exhibited gliding motility (P. yoelii sporozoites)
C=CCS[S+]([O-])CC=C (stereo not drawn) [allicin],prevented CSP cleavage to the same extent as when 50 μM allicin was present during the entire chase,inhibited,comparable to that observed with E-64,,,
"CC(C)C[C@H](NC(=O)[C@H]1O[C@@H]1C(=O)O)C(=O)NCCCCN=C(N)N (relative stereo) [E-64, L-trans-epoxysuccinyl-leucylamide-[4-guanido]-butane]",,,,inhibited CSP processing,90% ± 4.1,no effect
